Experiments:
[1] = molecular target: T1, PPARγ (Homo sapiens, UniProt P37231); conditions: highly selective agonist, commercial vendors; cited from earlier work
T1 sequence (P37231 1-505): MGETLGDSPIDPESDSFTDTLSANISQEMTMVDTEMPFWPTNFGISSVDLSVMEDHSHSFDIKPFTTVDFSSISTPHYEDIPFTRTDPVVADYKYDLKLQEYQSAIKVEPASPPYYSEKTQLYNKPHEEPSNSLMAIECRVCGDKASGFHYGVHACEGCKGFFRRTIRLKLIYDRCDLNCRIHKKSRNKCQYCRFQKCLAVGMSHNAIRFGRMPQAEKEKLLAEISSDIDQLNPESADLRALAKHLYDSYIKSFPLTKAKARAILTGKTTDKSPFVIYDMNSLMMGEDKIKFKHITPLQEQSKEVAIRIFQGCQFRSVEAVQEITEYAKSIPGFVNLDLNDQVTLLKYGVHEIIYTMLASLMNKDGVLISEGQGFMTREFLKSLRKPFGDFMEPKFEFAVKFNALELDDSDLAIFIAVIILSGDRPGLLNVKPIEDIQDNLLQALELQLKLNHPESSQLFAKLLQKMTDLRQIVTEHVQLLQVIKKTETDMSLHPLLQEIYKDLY

[2] = molecular target: T2, PPARα (Homo sapiens, UniProt Q07869); conditions: Leesnitzer et al.; cited from earlier work
T2 sequence (Q07869 1-468): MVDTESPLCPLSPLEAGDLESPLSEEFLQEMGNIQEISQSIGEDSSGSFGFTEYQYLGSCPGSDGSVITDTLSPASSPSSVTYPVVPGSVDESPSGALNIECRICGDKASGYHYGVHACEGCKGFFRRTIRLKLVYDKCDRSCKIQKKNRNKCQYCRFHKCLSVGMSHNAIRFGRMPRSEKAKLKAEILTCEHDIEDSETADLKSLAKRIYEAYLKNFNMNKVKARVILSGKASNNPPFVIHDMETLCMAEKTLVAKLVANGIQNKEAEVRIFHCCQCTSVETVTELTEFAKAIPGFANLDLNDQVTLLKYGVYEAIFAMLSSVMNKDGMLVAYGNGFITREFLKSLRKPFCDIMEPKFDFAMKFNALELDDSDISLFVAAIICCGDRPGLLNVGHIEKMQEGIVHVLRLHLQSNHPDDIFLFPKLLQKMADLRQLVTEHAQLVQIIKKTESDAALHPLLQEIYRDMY

[3] = molecular target: T3, PPARδ (Homo sapiens, UniProt Q03181); conditions: Leesnitzer et al.; cited from earlier work
T3 sequence (Q03181 1-441): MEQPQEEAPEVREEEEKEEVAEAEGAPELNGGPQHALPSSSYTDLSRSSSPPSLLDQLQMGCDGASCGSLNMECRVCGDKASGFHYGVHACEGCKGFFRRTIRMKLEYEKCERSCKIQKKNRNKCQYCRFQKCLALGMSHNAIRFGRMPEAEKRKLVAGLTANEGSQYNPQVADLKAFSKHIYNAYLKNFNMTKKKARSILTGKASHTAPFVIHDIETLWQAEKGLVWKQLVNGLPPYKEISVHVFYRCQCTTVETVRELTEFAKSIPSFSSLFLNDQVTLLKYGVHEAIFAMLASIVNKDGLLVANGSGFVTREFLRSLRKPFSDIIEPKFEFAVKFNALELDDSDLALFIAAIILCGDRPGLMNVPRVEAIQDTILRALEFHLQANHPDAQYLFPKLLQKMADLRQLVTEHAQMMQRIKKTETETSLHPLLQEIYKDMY

[4] = tested on: GAPDH polypeptide; test: GAPDH polypeptide expression in treated HeLa cells, Western blot; type: cell-based, human; conditions: ibuprofen treatment
[5] = tested on: PGRN polypeptide; test: PGRN polypeptide levels in cell lysates and culture supernatants of treated HeLa cells, Western blotting; type: cell-based, human; conditions: 1.25 to 20 micromolar ibuprofen, 24 hours, vs DMSO
Procedure: Cell cultures were maintained in standard cell culture media supplemented with 5% fetal bovine serum and 100 U/mL penicillin/streptomycin (Life Technologies, Karlsruhe, Germany). Cell cultures consisted of Chinese hamster ovary (CHO) cells; human HeLa cells (HeLa); BE(2)-M17, human neuroblastoma (M17); N2A, mouse neuroblastoma; and human lymphoblasts.
The following NSAIDs were dissolved in the vehicle DMSO: ibuprofen (Biomol, Plymouth Meeting, Pa.), indomethacin (Biomol), diclofenac (Cayman Chemical, Ann Arbor, Mich.), naproxen (Cayman Chemical), and aspirin (ICN Biomedicals, Irvine, Calif.). Cells were cultured in serum-containing media and treated for 24 hours in serum-free media with a specific NSAID. NSAID toxicity was examined using a standard MTT-assay (3-(4,5-Dimethyl-2-thiazolylyl)-2,5-diphenyl-2H-tetrazolium Bromide). For cell toxicity studies, cells were treated with NSAIDS at concentrations up to 100 micromolar.
Antibodies that were used included a monoclonal human progranulin antibody (Zymed, South San Francisco, Calif.) directed against full length progranulin polypeptide, a mouse progranulin antibody (R&D Systems, Minneapolis, Minn.) directed against full length progranulin polypeptide, and an anti-GAPDH antibody (Sigma-Aldrich).
HeLa cell cultures (N=4 for all studies) were treated with various concentrations of NSAIDs, including ibuprofen, naproxen, indomethacin, meclofenamic acid, and acetylsalicylic acid for 24 hours in serum free media. Levels of PGRN polypeptide in culture supernatants and in cell lysates were analyzed using Western blotting.

[6] = tested on: PGRN polypeptide; test: PGRN polypeptide levels in cell lysates and culture supernatants of treated M17 cells, Western blotting; type: cell-based, human; conditions: M17 cells, ibuprofen 1 to 5 μM
Procedure: Cell cultures were maintained in standard cell culture media supplemented with 5% fetal bovine serum and 100 U/mL penicillin/streptomycin (Life Technologies, Karlsruhe, Germany). Cell cultures consisted of Chinese hamster ovary (CHO) cells; human HeLa cells (HeLa); BE(2)-M17, human neuroblastoma (M17); […] The following PPAR activators were dissolved in DMSO: ciglitazone (Calbiochem, San Diego, Calif.), fenofibrate (Sigma-Aldrich, Saint Louis, Mo.), clofibrate (Calbiochem), and L165041 (Calbiochem). Cells were cultured in serum-containing media and treated for 24 hours in serum-free media with a specific PPAR agonist. Curcumin (Sigma-Aldrich) and resveratrol (Sigma-Aldrich) were dissolved in DMSO. Cells were cultured in serum-containing media and treated for 24 hours in serum-free media with curcumin or resveratrol. Antibodies that were used included a monoclonal human progranulin antibody (Zymed, South San Francisco, Calif.) directed against full length progranulin polypeptide, a mouse progranulin antibody (R&D Systems, Minneapolis, Minn.) directed against full length progranulin polypeptide, and an anti-GAPDH antibody (Sigma-Aldrich). Cell cultures were treated with increasing concentrations of the PPARα activator clofibrate or with DMSO. Levels of PGRN polypeptide in culture supernatants and in cell lysates were analyzed using Western blotting. The levels of intracellular and secreted forms of PGRN polypeptide were compared in clofibrate treated M17 cell cultures and DMSO treated M17 cell cultures (FIG. 20).

[7] = tested on: PGRN polypeptide; test: PGRN polypeptide levels in treated N2A mouse neuroblastoma cells; type: cell-based; conditions: N2A cells, ibuprofen 1 to 5 μM
Procedure: Cell cultures were maintained in standard cell culture media supplemented with 5% fetal bovine serum and 100 U/mL penicillin/streptomycin (Life Technologies, Karlsruhe, Germany). Cell cultures consisted of Chinese hamster ovary (CHO) cells; human HeLa cells (HeLa); BE(2)-M17, human neuroblastoma (M17); […] The following NSAIDs were dissolved in the vehicle DMSO: ibuprofen (Biomol, Plymouth Meeting, Pa.), indomethacin (Biomol), diclofenac (Cayman Chemical, Ann Arbor, Mich.), naproxen (Cayman Chemical), and aspirin (ICN Biomedicals, Irvine, Calif.). Cells were cultured in serum-containing media and treated for 24 hours in serum-free media with a specific NSAID. […] For cell toxicity studies, cells were treated with NSAIDS at concentrations up to 100 micromolar. The following PPAR activators were dissolved in DMSO: ciglitazone (Calbiochem, San Diego, Calif.), fenofibrate (Sigma-Aldrich, Saint Louis, Mo.), clofibrate (Calbiochem), and L165041 (Calbiochem). Cells were cultured in serum-containing media and treated for 24 hours in serum-free media with a specific PPAR agonist. […]

[8] = tested on: PGRN polypeptide; test: PGRN polypeptide expression in HeLa cells by immunohistochemistry; type: cell-based, human; conditions: ibuprofen 2.5 μM for 24 hours, vs untreated
Procedure: Treated and untreated HeLa cells were analyzed for PGRN polypeptide expression using immunohistochemistry. […] Levels of PGRN polypeptide in cell culture supernatants and cell lysates of HeLa cells treated with various concentrations of ibuprofen were compared to corresponding PGRN polypeptide levels in HeLa cells treated with DMSO (FIG. 26).

[9] = tested on: PGRN mRNA; conditions: myeloid cells, Ong et al.; cited from earlier work

GW1929
PPARγ agonist activity range [1]: low nM range

O=C(Nc1ccccc1)c1cc([N+](=O)[O-])ccc1Cl [GW9662, 2-Chloro-5-nitro-N-phenylbenzamide]
block of PPARα receptors [2]: low nM range | block of PPARδ receptors [3]: low micromolar range

CC(C)Cc1ccc(C(C)C(=O)O)cc1 (stereo not drawn) [ibuprofen]
effect on GAPDH polypeptide expression [4]: No significant effect | increase in the level of intracellular PGRN polypeptide [5]: approximately 150% | increase in PGRN polypeptide expression [6]: up to 600% | increase in PGRN polypeptide expression [7]: up to 600% | PGRN polypeptide expression by immunohistochemistry [8]: increased PGRN polypeptide expression in the Golgi

CC1=C(/C=C/C(C)=C/C=C/C(C)=C/C(=O)O)C(C)(C)CCC1 [all trans-retinoic acid]
PGRN mRNA level [9]: upregulation of PGRN mRNA
